From PubChem BioAssay (NCI)
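Compound exposure: 48 hours, 5 concentrations, 96-well plates. At the GI50, growth is halved. TGI: concentration producing complete growth inhibition.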

Tests used:
Experiment in all cases: DTP human tumour cell line panel, 48 h
[1] = tested on: MDA-MB-468 breast
[2] = tested on: TK-10 renal
[3] = tested on: K-562 leukemia
[4] = tested on: HS 578T breast
[5] = tested on: LOX IMVI melanoma
[6] = tested on: NCI-H23 lung
[7] = tested on: HOP-92 NSCLC
[8] = tested on: SK-OV-3 ovarian
[9] = tested on: SW-620 colon
[10] = tested on: SF-268 CNS
[11] = tested on: BT-549 breast
[12] = tested on: HCT-116 colon
[13] = tested on: SK-MEL-5 melanoma
[14] = tested on: M14 melanoma
[15] = tested on: NCI-H460 lung
[16] = tested on: KM12 colon
[17] = tested on: RPMI-8226 leukemia
[18] = tested on: CCRF-CEM leukemia
[19] = tested on: HOP-62 NSCLC
[20] = tested on: PC-3 prostate
[21] = tested on: OVCAR-3 ovarian
[22] = tested on: UACC-62 melanoma
[23] = tested on: DU-145 prostate
[24] = tested on: ACHN renal
[25] = tested on: OVCAR-5 ovarian
[26] = tested on: MOLT-4 leukemia
[27] = tested on: NCI-H522 lung
[28] = tested on: HCT-15 colon
[29] = tested on: COLO 205 colon
[30] = tested on: A549 NSCLC
[31] = tested on: HL-60(TB) leukemia
[32] = tested on: EKVX NSCLC
[33] = tested on: MALME-3M melanoma
[34] = tested on: SK-MEL-28 melanoma
[35] = tested on: SR leukemia
[36] = tested on: IGROV1 ovarian
[37] = tested on: UACC-257 melanoma
[38] = tested on: SNB-19 CNS
[39] = tested on: NCI-H226 lung
[40] = tested on: OVCAR-8 ovarian
[41] = tested on: OVCAR-4 ovarian
[42] = tested on: CAKI-1 renal
[43] = tested on: HT29 colon
[44] = tested on: SF-295 CNS
[45] = tested on: U251 CNS
[46] = tested on: A498 renal
[47] = tested on: MDA-MB-231 breast
[48] = tested on: RXF 393 renal
[49] = tested on: HCC-2998 colon
[50] = tested on: MCF7 breast
[51] = tested on: 786-0 renal
[52] = tested on: T-47D breast
[53] = tested on: SF-539 CNS
[54] = tested on: SNB-75 CNS
[55] = tested on: UO-31 renal
[56] = tested on: MDA-MB-435
[57] = tested on: SN12C renal

## CCN(CC)CCOc1ccc(Nc2ncc3cc(-c4ccc(O)cc4)c(=O)n(C)c3n2)cc1
[1]
  GI50: 3.9 µM
  TGI: 24.2 µM

## N=C1c2nc3n(c2C(=O)c2nc4n(c21)CCCC4)CCCC3
[1]
  GI50: 8.95 µM
  TGI: 53.4 µM

## Nc1ccc(C(=O)c2ccc(N)c(Br)c2)cc1Br
[1]
  GI50: 0.248 µM
  TGI: 0.709 µM

## Cc1ccccc1CN1CC2=C(CCN(Cc3ccccc3)C2=O)N2CCN=C12
[1]
  GI50: 0.773 µM
  TGI: 6.83 µM

## O=C(Nc1ccc(-n2cc(-c3ccncc3)c(-c3ccc(Cl)c(O)c3)n2)cc1)Nc1cc(C(F)(F)F)cc(C(F)(F)F)c1
[1]
  GI50: 1.79 µM
  TGI: 5.04 µM

## COc1cc(Cl)cc(-c2nn(C(=O)NCCN3CCN(C)CC3)cc2-c2ccncc2)c1
[1]
  GI50: 10.5 µM
  TGI: 49.9 µM

## COc1ccc(/C=C\c2cc(OC)c(OC)c(OC)c2)cc1OC(=O)C(N)CCC(=O)O (centres undefined)
[1]
  TGI: > 100 µM

## COc1ccc(/C=C2\CN(C(=O)C(Cl)Cl)C/C(=C\c3ccc(OC)c(OC)c3)C2=O)cc1OC
[1]
  GI50: 0.224 µM
  TGI: 0.621 µM

## O=C(N/N=C\c1ccc(F)cc1)c1ccc2nc(-c3ccc(Br)cc3)[nH]c2c1
[1]
  GI50: 1.98 µM
  TGI: 3.99 µM

## Fc1ccc(Oc2nccc(-c3c(-c4ccc(F)cc4)ncn3C3CCNCC3)n2)cc1
[1]
  GI50: 4.7 µM
  TGI: > 24 µM

## CCN1C(=O)N(CC)C2C1NN=c1s/c(=C3\C(=O)N(CC(C)C)c4ccccc43)c(=O)n12 (centres undefined)
[1]
  GI50: 0.351 µM
  TGI: 15.9 µM

## c1ccc(C(=NNc2nc3ccccc3o2)c2ccccn2)nc1
[1]
  GI50: 0.0285 µM
  TGI: 0.196 µM

## CC([C@H]1CCC2C3CCC4C[C@@H](NC=O)CC[C@]4(C)C3CC[C@@]21C)N(C)C (some centres undefined)
[1]
  GI50: 1.42 µM
  TGI: 3.73 µM

## O=C(Nc1ccc(-n2cc(-c3ccncc3)c(-c3ccc(O)c(Cl)c3)n2)cc1)c1cc(Cl)cc(Cl)c1
[1]
  GI50: 3.17 µM
  TGI: > 32.5 µM

## CC(=O)Nc1cccc(-n2cnc3cc(-c4ccc(O)cc4)ccc32)c1
[1]
  GI50: 0.259 µM
  TGI: 0.65 µM

## CCC(C)(C)c1ccc(OCCCCN2CCN(c3ccncc3)CC2)cc1
[2]
  GI50: 15.9 µM
  TGI: 29.8 µM
[3]
  GI50: 1.98 µM
  TGI: 11.2 µM
[4]
  GI50: 13.8 µM
  TGI: 38.8 µM
[5]
  GI50: 1.9 µM
  TGI: 3.64 µM
[6]
  GI50: 5.46 µM
  TGI: 18.4 µM
[7]
  GI50: 1.97 µM
  TGI: 15.6 µM
[8]
  GI50: 14.7 µM
  TGI: 29 µM
[9]
  GI50: 4.82 µM
  TGI: 18.2 µM
[10]
  GI50: 15.3 µM
  TGI: 31 µM
[11]
  GI50: 5.79 µM
  TGI: 19.2 µM
[12]
  GI50: 4.65 µM
  TGI: 16.3 µM
[13]
  GI50: 6.63 µM
  TGI: 19.3 µM
[14]
  GI50: 10.6 µM
  TGI: 22.8 µM
[15]
  GI50: 10.1 µM
  TGI: 24 µM
[16]
  GI50: 10.8 µM
  TGI: 24.3 µM
[17]
  GI50: 4.59 µM
  TGI: 24.2 µM
[18]
  GI50: 6.07 µM
  TGI: 37.7 µM
[19]
  GI50: 12.4 µM
  TGI: 27 µM
[20]
  GI50: 5.29 µM
  TGI: 25.4 µM
[21]
  GI50: 11.2 µM
  TGI: 24 µM
[22]
  GI50: 13.5 µM
  TGI: 26.4 µM
[23]
  GI50: 13.4 µM
  TGI: 26.7 µM
[24]
  GI50: 15 µM
  TGI: 28.3 µM
[25]
  GI50: 12.7 µM
  TGI: 25.2 µM
[26]
  GI50: 4.63 µM
  TGI: 24.4 µM
[27]
  GI50: 15.6 µM
  TGI: 31 µM
[28]
  GI50: 2.08 µM
  TGI: 4.82 µM
[29]
  GI50: 2.14 µM
  TGI: 4.03 µM
[30]
  GI50: 12.5 µM
  TGI: 27.3 µM
[31]
  GI50: 1.93 µM
  TGI: 4.42 µM
[32]
  GI50: 7.78 µM
  TGI: 21.6 µM
[33]
  GI50: 7.82 µM
  TGI: 20.5 µM
[1]
  GI50: 2.27 µM
  TGI: 5.8 µM
[34]
  GI50: 7.48 µM
  TGI: 20.3 µM
[35]
  GI50: 3.06 µM
  TGI: 10.1 µM
[36]
  GI50: 13.7 µM
  TGI: 27.3 µM
[37]
  GI50: 13.4 µM
  TGI: 27.5 µM
[38]
  GI50: 11.3 µM
  TGI: 23.6 µM
[39]
  GI50: 11.5 µM
  TGI: 25.3 µM
[40]
  GI50: 14.1 µM
  TGI: 32 µM
[41]
  GI50: 11.6 µM
  TGI: 25 µM
[42]
  GI50: 13.9 µM
  TGI: 27.5 µM
[43]
  GI50: 3.45 µM
  TGI: 14 µM
[44]
  GI50: 4.02 µM
  TGI: 15.3 µM
[45]
  GI50: 5.92 µM
  TGI: 19.4 µM
[46]
  GI50: 17.3 µM
  TGI: 31.7 µM
[47]
  GI50: 11 µM
  TGI: 23.4 µM
[48]
  GI50: 2.77 µM
  TGI: 14.6 µM
[49]
  GI50: 2.29 µM
  TGI: 5.48 µM
[50]
  GI50: 3.08 µM
  TGI: 10.7 µM
[51]
  GI50: 7.54 µM
  TGI: 20.1 µM
[52]
  GI50: 5.27 µM
  TGI: 22.8 µM
[53]
  GI50: 5.15 µM
  TGI: 18.2 µM
[54]
  GI50: 13.4 µM
  TGI: 26.6 µM
[55]
  GI50: 12.2 µM
  TGI: 24.7 µM
[56]
  GI50: 8.9 µM
  TGI: 21.1 µM
[57]
  GI50: 13 µM
  TGI: 26 µM

## CC1(C)NCCC[C@]2(C)[C@H]3C=CC4=C5C[C@](C)(CO)CC[C@]5(C)CC[C@@]4(C)[C@]3(C)CC[C@@H]12
[1]
  GI50: 10.4 µM
  TGI: 24 µM

## Nc1nc(Nc2ccc3c(c2)CC[C@@H](N2CCCC2)CC3)nn1-c1cc2c(nn1)-c1ccccc1CCC2
[1]
  GI50: 1.75 µM
  TGI: 3.39 µM

## CC(=O)Nc1nc(SCc2ccccc2)c2ncn(C(C)=O)c2n1
[1]
  GI50: 24.8 µM
  TGI: > 100 µM

## O=[N+]([O-])c1ccc(-c2nc(N(CCO)CCO)c3ccccc3n2)o1
[1]
  GI50: 0.0553 µM
  TGI: 0.195 µM

## O=C(NC1CC1)c1ccc(-c2nc3ccc4[nH]ncc4c3c3c2CCCC3)cc1
[1]
  GI50: 1.5 µM
  TGI: 7.14 µM

## CCCCCCCCCNCCCCCCCCC
[1]
  GI50: 1.77 µM
  TGI: 3.22 µM

## COc1ccc2c(c1)nc(N)c1c3cc(OC)c(OC)cc3cn21
[1]
  GI50: 0.0339 µM
  TGI: 12.5 µM

## COc1cc(NC(=O)c2cc(OC)c3ccn(C)c3c2)cc2c1C[C@]1(C)CC[C@@H](O)C(C)(C)[C@H]1O2
[1]
  GI50: 6.61 µM
  TGI: > 100 µM

## CCCc1ccc(S(=O)(=O)N[C@H]2CC[C@H]3[C@@H]4CCc5cc(O)ccc5[C@H]4CC[C@]23C)cc1
[1]
  GI50: 2.32 µM
  TGI: 9.51 µM

## CCCCCCCCCCC(C[N+](C)(C)C/C=C/c1ccccc1)C(O)c1ccccc1 (centres undefined)
[1]
  GI50: 1.37 µM
  TGI: 3.06 µM

## C=C1CC[C@@]2(C#N)[C@H]3[C@H](CC[C@@H]2C)[C@@H](C)C[C@@H](CC(C)(C)C#N)[C@H]13
[1]
  GI50: 2.79 µM
  TGI: 25.9 µM

## CCCCCNC(=O)[C@@H]1CCCN2C(=O)CC[C@H](NC(=O)[C@H](Cc3ccc(OP(=O)(O)O)cc3)NC(C)=O)C(=O)N12
[1]
  GI50: > 25 µM
  TGI: > 25 µM

## COc1ccccc1N1CCN(C2=NN=C(c3cccc(Cl)c3)c3ccccc3C2)CC1
[1]
  GI50: 0.382 µM
  TGI: > 100 µM

## Cc1cc(C)c(O)c(CNCCCCCCNCc2cc(C)cc(C)c2O)c1
[1]
  GI50: 1.6 µM
  TGI: 3.12 µM

## CCC1=C[C@@H]2CN(C1)Cc1c([nH]c3ccccc13)[C@@](C(=O)OC)(c1cc3c(cc1OC)N(C=O)[C@H]1[C@@](O)(C(=O)OC)[C@H](OC(C)=O)[C@]4(CC)[C@@H]5C[C@@H]5CN5CC[C@]31[C@@H]54)C2
[1]
  GI50: < 0.000625 µM
  TGI: > 6.25 µM

## c1ccc2[nH]c(SSc3nc4ncncc4[nH]3)nc2c1
[1]
  GI50: 0.232 µM
  TGI: > 76.5 µM

## COc1c(C)c2c(c(O)c1C/C=C(\C)CCC(=O)OCCN1CCOCC1)C(=O)OC2
[1]
  GI50: 0.421 µM
  TGI: > 100 µM

## C/C=C(\C)C(=O)N[C@H]1[C@@H](OC(C)=O)C[C@]2(C)C3CC[C@@]4(C)C(CC[C@@H]4C(C)N(C)C)C3CCC2[C@H]1O (some centres undefined)
[1]
  GI50: 2.02 µM
  TGI: 9.67 µM
